Measured values reported in patent US20260132128A1, “COMPOUND FOR RECOVERING P53 MUTATION FUNCTION AND USE THEREOF” (SHENZHEN ZHONGGE BIOLOGICAL TECHNOLOGY CO., LTD., priority 2022, published 2026).
Marks after values point to notes of the source that are not given here.

Key:
NUGC-3 cells = test: NUGC-3 cell proliferation assay (CTG); assay type: cell-based, human; conditions: for GI50: 6 days, CTG; for Compound GI50 (nM)/Reference compound GI50 (nM): multiple ratio of GI50 of the compound to the reference compound
Description: In order to detect the inhibitory effect of the aforementioned compounds on the proliferation ability of NUGC-3 cells, 250 NUGC-3 cells (Nanjing Cobioer Biosciences Co., Ltd., CBP60492) were seeded into a 384-well plate (Corning 3765), 35 μL per well, and incubated overnight in a constant temperature incubator at 37° C. and 5% CO2. Then, 40 nL of the compound was added to the 384-well plate using an Echo 655 Liquid Handler, with a maximum final concentration of 10 μM, 1:3 serial dilutions, and a total of 10 doses. The culture was performed at 37° C. and 5% CO2 for 6 days. The plate was taken out from the incubator and equilibrated at room temperature for 10 minutes. 20 μL of CTG (Promage G7572) was added to each well of the plate according to the platemap. The plate was centrifuged at 1000 rpm for 1 min. The lysis of cells was induced by mixing on a shaker for 2 min. The plate was centrifuged at 1000 rpm for 1 min. Incubation was performed at room temperature for 10 min to stabilize luminescence signals. Luminescence values were recorded by Envision (PerkinElmer 2105-0020). GraphPad 9.0 was used to fit the inhibition rate and compound concentration into a nonlinear regression curve (dose response-variable slope) to calculate GI50, inhibition rate={1−(A−B)/(C−B)}*100%, A=signal value of compound; B=average signal of blank control; C=average signal of negative control (wherein negative control was 0.1% DMSO).

p53 Y220C [1] = target: T1, p53 Y220C (Homo sapiens, UniProt P04637, P309S/R273H/Y220C); test: DNA binding test (HTRF): binding of P53Y220C protein to DNA; assay type: biochemical; conditions: HTRF, activation of p53 Y220C (aa 94-312) binding to biotin DNA
T1 construct: a truncated mutant containing only amino acids 94-312 of p53; made in house; host or cells: E. coli
Description: (§1) In order to detect the ability of the aforementioned compounds to increase the binding of P53Y220C protein to DNA, the binding activity of p53 Y220C was measured by homogeneous time-resolved fluorescence (HTRF). Recombinant His-tagged p53 Y220C for HTRF measurement was expressed in bacteria E. coli. The recombinant protein was a truncated mutant containing only amino acids 94-312 of p53, and its sequence was […] […] VEGNLR […] TFRh[…] […]. The sense strand of the DNA double strand was 5′-[…]-3′, with a biotin tag at the 5′ end for activity assay, and the antisense strand was 5′-[…]-3′ 40 mL of assay buffer (20 mM Tris HCL, pH 7.5, 50 mM NaCl, 2 mM MgCl2, 0.02% Tween 20, 0.01% BSA, 1 mM DTT) was prepared. 10 mM compound was prepared and subjected to 3-fold dilution to obtain 10 dose gradient dilutions of the compound. 20 nL of the compound was added to a 384-well assay plate (PerkinElmer 6007299) using an Echo 655 Liquid Handler. P53Y220C protein was dissolved in assay buffer to reach a final concentration of 150 nM, and 5 μL thereof was added to each well, and incubated at room temperature for 5 min. DNA was dissolved in assay buffer to reach a final concentration of 150 nM, and 5 μL thereof was added to each well, and incubated at room temperature for 15 min. Anti 6HIS-XL665 (Cisbio 61HISXLB) was dissolved in assay buffer to reach a final concentration of 20 nM, and 5 μL thereof was added to each well. Streptavidin-Eu cryptate (Cisbio 610SAKLA) was dissolved in assay buffer to reach a final concentration of 0.625 nM, and 5 μL thereof was added to each well, and incubated at 27° C. for 1 hour. The plate was then read for signal values on an Envision (PerkinElmer 2105-0020) plate reader at 665 nm and 615 nm, respectively. […] Activation rate={(A-C)/(C)}*100%, A=(signal value at 665 nm/signal value at 615 nm); C=average signal of negative control (wherein, negative control referred to 0.1% DMSO).

p53 Y220C [2] = target: T2, p53 Y220C (Homo sapiens, UniProt P04637, Y220C); test: as above; assay type: biochemical; conditions: multiple ratio of EC50 of the compound to the reference compound, DNA binding test
T2 construct: a truncated mutant containing only amino acids 94-312 of p53; made in house; host or cells: E. coli
Description: as §1

| Compound | EC50 (p53 Y220C [1]) | GI50 (NUGC-3 cells) | Compound GI50 (nM)/Reference compound GI50 (nM) (NUGC-3 cells) | Compound EC50 (nM)/Reference compound EC50 (nM) (p53 Y220C [2]) | GI50 (NUGC-3 cells; Homo sapiens, NUGC-3, 144 h) |
| --- | --- | --- | --- | --- | --- |
| CNC(=O)c1ccc(NCC#Cc2nc3c(NC4CCN(C(C)C)CC4F)cccn3c2CC(F)(F)F)c(OC)c1 (stereo not shown) [Compound 20] | 500 to 1000 nM | – | C (C: GI50 of the compound ≥ 3 * GI50 of the reference compound) | C (C: EC50 of the compound≥3*EC50 of the reference compound) | 1000 to 5000 nM |
| CNC(=O)c1ccc(NCC#Cc2nc3c(NC4CCC(F)(F)CC4)cccn3c2CC(F)(F)F)c(OC)c1 [Compound 6] | 100 to 500 nM | – | C (C: GI50 of the compound ≥ 3 * GI50 of the reference compound) | C (C: EC50 of the compound≥3*EC50 of the reference compound) | ≥ 5000 nM |
| CN1CCC(Nc2cccn3c(CC(F)(F)F)c(-c4ncc(CNC(=O)c5ccn(C(C)(C)C)c5)s4)nc23)CC1 [Compound 24] | 100 to 500 nM | – | C (C: GI50 of the compound ≥ 3 * GI50 of the reference compound) | C (C: EC50 of the compound≥3*EC50 of the reference compound) | 1000 to 5000 nM |
| COc1cc(S(N)(=O)=O)ccc1NCC#Cc1nc2c(NC3CCN(C)CC3)cccn2c1CC(F)(F)F [Compound 12] | 100 to 500 nM | – | C (C: GI50 of the compound ≥ 3 * GI50 of the reference compound) | B (B: EC50 of the reference compound<EC50 of the compound≤3.0*EC50 of the reference compound) | ≥ 5000 nM |
| CNC(=O)c1ccc(NCC#Cc2nc3c(NC4CCN(CC(O)COC)CC4)cccn3c2CC(F)(F)F)c(OC)c1 (stereo not shown) [Compound 7] | 100 to 500 nM | – | C (C: GI50 of the compound ≥ 3 * GI50 of the reference compound) | C (C: EC50 of the compound≥3*EC50 of the reference compound) | 1000 to 5000 nM |
| CN1CCC(Nc2cccn3c(CC(F)(F)F)c(-c4nnc(CNC(=O)c5cnn(Cc6ccccc6)c5)s4)nc23)CC1 [Compound 23] | 100 to 500 nM | – | C (C: GI50 of the compound ≥ 3 * GI50 of the reference compound) | B (B: EC50 of the reference compound<EC50 of the compound≤3.0*EC50 of the reference compound) | 1000 to 5000 nM |
| COc1cc(-c2nccs2)ccc1NCC#Cc1nc2c(NC3CCN(C)CC3)cccn2c1CC(F)(F)F [Compound 16] | 100 to 500 nM | – | C (C: GI50 of the compound ≥ 3 * GI50 of the reference compound) | C (C: EC50 of the compound≥3*EC50 of the reference compound) | ≥ 5000 nM |
| CN1CCC(Nc2cccn3c(CC(F)(F)F)c(-c4nnc(CNC(=O)c5ccn(C(C)(C)C)c5)s4)nc23)CC1 [Compound 19] | 100 to 500 nM | – | C (C: GI50 of the compound ≥ 3 * GI50 of the reference compound) | B (B: EC50 of the reference compound<EC50 of the compound≤3.0*EC50 of the reference compound) | ≥ 5000 nM |
| COc1cc(C#N)ccc1NCC#Cc1nc2c(NC3CCN(C)CC3)cccn2c1CC(F)(F)F [Compound 11] | 100 to 500 nM | – | C (C: GI50 of the compound ≥ 3 * GI50 of the reference compound) | B (B: EC50 of the reference compound<EC50 of the compound≤3.0*EC50 of the reference compound) | – |
| CNC(=O)c1ccc(NCC#Cc2nc3c(NC4CCC(N5CC6(COC6)C5)CC4F)cccn3c2CC(F)(F)F)c(OC)c1 (single isomer, unassigned) [Compound 35-6g] | 100 to 500 nM | ≥ 5000 nM | C (C: GI50 of the compound ≥ 3 * GI50 of the reference compound) | C (C: EC50 of the compound≥3*EC50 of the reference compound) | – |
| COc1cc(P(C)(C)=O)ccc1NCC#Cc1nc2c(N[C@@H]3CCN(C)C[C@@H]3F)cccn2c1CC(F)(F)F [Compound 14] | 100 to 500 nM | – | B (B: GI50 of the reference compound < GI50 of the compound ≤ 3.0 * GI50 of the reference compound) | B (B: EC50 of the reference compound<EC50 of the compound≤3.0*EC50 of the reference compound) | 1000 to 5000 nM |

Further lines, with some results ahead:

| EC50 (p53 Y220C [1]) | Compound | GI50 (NUGC-3 cells) | Compound GI50 (nM)/Reference compound GI50 (nM) (NUGC-3 cells) | Compound EC50 (nM)/Reference compound EC50 (nM) (p53 Y220C [2]) | GI50 (NUGC-3 cells; Homo sapiens, NUGC-3, 144 h) |
| --- | --- | --- | --- | --- | --- |
| < 100 nM | CNC(=O)c1ccc(NCC#Cc2nc3c(NC4CCC(N5CC6(COC6)C5)CC4F)cccn3c2CC(F)(F)F)c(OC)c1 (single isomer, unassigned) [Compound 35-6f] | 1000 to 5000 nM | C (C: GI50 of the compound ≥ 3 * GI50 of the reference compound) | B (B: EC50 of the reference compound<EC50 of the compound≤3.0*EC50 of the reference compound) | – |
| 100 to 500 nM | CNC(=O)c1ccc(NCC#Cc2nc3c(N[C@@H]4CCN(CCOC)C[C@@H]4F)cccn3c2CC(F)(F)F)c(OC)c1 [Compound 21] | – | C (C: GI50 of the compound ≥ 3 * GI50 of the reference compound) | C (C: EC50 of the compound≥3*EC50 of the reference compound) | 1000 to 5000 nM |
| 100 to 500 nM | CNC(=O)c1ccc(NCC#Cc2nc3c(NC4CCC(C)(O)CC4)cccn3c2CC(F)(F)F)c(OC)c1 (stereo not shown) [Compound 25] | – | C (C: GI50 of the compound ≥ 3 * GI50 of the reference compound) | C (C: EC50 of the compound≥3*EC50 of the reference compound) | ≥ 5000 nM |
| < 100 nM | CNC(=O)c1ccc(NCC#Cc2nc3c(NC4CCC(N5CC6(COC6)C5)CC4F)cccn3c2CC(F)(F)F)c(OC)c1 (single isomer, unassigned) [Compound 35-6h] | 1000 to 5000 nM | C (C: GI50 of the compound ≥ 3 * GI50 of the reference compound) | B (B: EC50 of the reference compound<EC50 of the compound≤3.0*EC50 of the reference compound) | – |
| 100 to 500 nM | CN1CCC(Nc2cccn3c(CC(F)(F)F)c(-c4nnc(CNC(=O)c5cnn(C6CCOC6)c5)s4)nc23)CC1 (stereo not shown) [Compound 22] | – | C (C: GI50 of the compound ≥ 3 * GI50 of the reference compound) | B (B: EC50 of the reference compound<EC50 of the compound≤3.0*EC50 of the reference compound) | ≥ 5000 nM |
| < 100 nM | CCNC(=O)c1ccc(NCC#Cc2nc3c(N[C@@H]4CC[C@@H](N5CC6(COC6)C5)C[C@@H]4F)cccn3c2CC(F)(F)F)c(OC)c1 [Compound 50] | – | C (C: GI50 of the compound ≥ 3 * GI50 of the reference compound) | A (A: EC50 of the compound≤EC50 of the reference compound) | – |
| < 100 nM | [2H]C([2H])([2H])NC(=O)c1ccc(NCC#Cc2cc3c(NC4CCC(N5CCOCC5)CC4F)cccn3c2CC(F)(F)F)c(OC([2H])([2H])[2H])c1 (single isomer, unassigned) [Compound 73d] | – | A (A: GI50 of the compound ≤ GI50 of the reference compound) | B (B: EC50 of the reference compound<EC50 of the compound≤3.0*EC50 of the reference compound) | < 1000 nM |
